Measured values as given in ChEMBL document CHEMBL1140303, “Pharmacophore, drug metabolism, and pharmacokinetics models on non-peptide AT1, AT2, and AT1/AT2 angiotensin II receptor antagonists” (J Med Chem, 2005).

Columns and labels:
[1] = target: T1, Type-1 angiotensin II receptor (Homo sapiens) (UniProt P30556); assay: Time to maximal plasma concentration of the drug in human
T1 sequence (whole entry): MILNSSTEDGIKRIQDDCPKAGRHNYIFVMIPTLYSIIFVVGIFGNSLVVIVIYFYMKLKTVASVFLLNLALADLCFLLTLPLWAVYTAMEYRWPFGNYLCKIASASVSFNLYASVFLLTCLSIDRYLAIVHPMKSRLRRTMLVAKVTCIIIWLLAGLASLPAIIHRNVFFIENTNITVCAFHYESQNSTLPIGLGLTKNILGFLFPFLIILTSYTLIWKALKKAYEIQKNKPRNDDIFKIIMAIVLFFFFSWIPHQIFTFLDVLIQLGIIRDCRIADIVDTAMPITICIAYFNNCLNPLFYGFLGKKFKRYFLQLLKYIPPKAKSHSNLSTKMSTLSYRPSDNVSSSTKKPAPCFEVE

[2] = Oral bioavailability; format: ADME, organism-based; settings: human, in vivo
[3] = target: T1, Type-1 angiotensin II receptor (Homo sapiens)
Description: pKa value against human Angiotensin II receptor type 1

[4] = target: T1, Type-1 angiotensin II receptor (Homo sapiens); assay: Binding affinity for AT1 receptor
[5] = Time required for elimination of 50% of the compound; format: ADME; settings: human
[6] = Percentage modification of drug adsorbed after administration to human; format: ADME
[7] = Volume distribution was determined; format: ADME, organism-based; settings: human, in vivo
[8] = target: T1, Type-1 angiotensin II receptor (Homo sapiens); assay: Time to maximal effect against human Angiotensin II receptor type 1

Structure (SMILES) | Tmax [1] [h] | bioavailability [2] [%] | pKa [3] | Affinity [4] [nM] | half-life [5] [h] | Modification of adsorbed drug [6] [%] | Vd [7] [L/kg] | Tmax [8] [h] | VD [7] [L/kg]
CCCCc1nc(Cl)c(CO)n1Cc1ccc(-c2ccccc2-c2nnn[nH]2)cc1 | 1 | – | 4.9 | 6.4 | – | – | – | – | –
CCCc1nc2c(C)cc(-c3nc4ccccc4n3C)cc2n1Cc1ccc(-c2ccccc2C(=O)O)cc1 | 1 | 58 | 4.5 | 1 | 24 | 16 | 4.54 | – | –
CCCCc1nc(Cl)c(CO)n1Cc1ccc(-c2ccccc2C(=O)O)cc1 | – | – | – | 230 | – | – | – | – | –
CCCCc1ncc(/C=C(\Cc2cccs2)C(=O)O)n1Cc1ccc(C(=O)O)cc1 [EPROSARTAN] | 13 | 13 | 5 | 9.2 | 7 | 20 | 0.16 | – | –
Cc1nc(C)c2c(O)cc(=O)n(Cc3ccc(-c4ccccc4-c4nn[nH]n4)cc3)c2n1 | 1 | – | – | 0.4 | – | – | – | – | –
CCCCc1nc(Cl)c(CO)n1Cc1ccc(-c2ccccc2-c2nn[nH]n2)cc1 [LOSARTAN] | – | – | – | – | 3.2 | 75 | – | – | 0.38
CCCCc1nc(Cl)c(C(=O)O)n1Cc1ccc(-c2ccccc2-c2nn[nH]n2)cc1 [CARBOXYLIC ACID METABOLITE] | 3 | – | 2.8 | 1.3 | 6.4 | – | – | – | –

Next, values leading:

Tmax [1] [h] | bioavailability [2] [%] | pKa [3] | Affinity [4] [nM] | half-life [5] [h] | Modification of adsorbed drug [6] [%] | Vd [7] [L/kg] | Tmax [8] [h] | VD [7] [L/kg] | Structure (SMILES)
0.5 | 60 | 5 | 1.2 | 15 | 2 | – | – | – | Cc1nc(C)c2c(n1)N(Cc1ccc(-c3ccccc3-c3nnn[nH]3)cc1)C(=O)CC2 [TASOSARTAN]
– | – | – | 0.5 | – | – | – | – | – | CCc1nc2c(C)cc(C)nc2n1Cc1ccc(-c2ccccc2-c2nn[nH]n2)cc1
– | 40 | 3.9 | 0.1 | 11 | 20 | – | 4 | – | CCOc1nc2cccc(C(=O)O)c2n1Cc1ccc(-c2ccccc2-c2nnn[nH]2)cc1
2.5 | 70 | 4.7 | 1.3 | 21 | 20 | 0.9 | – | – | CCCCC1=NC2(CCCC2)C(=O)N1Cc1ccc(-c2ccccc2-c2nnn[nH]2)cc1 [IRBESARTAN]
– | – | – | – | 40 | – | – | – | – | Cc1nc(C)c2c(O)cc(=O)n(Cc3ccc(-c4ccccc4-c4nnn[nH]4)cc3)c2n1 [ENOLTASOSARTAN]
4 | 25 | – | 1.7 | 6.1 | 9 | 0.22 | – | – | CCCCC(=O)N(Cc1ccc(-c2ccccc2-c2nnn[nH]2)cc1)[C@H](C(=O)O)C(C)C
